In experiment [1] the target is T1, AHR (Homo sapiens, UniProt P35869).
T1 construct: U87 MG glioblastoma cells (ATCC #HTB-14) endogenously expressing AHR; endogenous in cells; host or cells: U87 MG glioblastoma cells (ATCC #HTB-14)
T1 sequence (P35869 11-848): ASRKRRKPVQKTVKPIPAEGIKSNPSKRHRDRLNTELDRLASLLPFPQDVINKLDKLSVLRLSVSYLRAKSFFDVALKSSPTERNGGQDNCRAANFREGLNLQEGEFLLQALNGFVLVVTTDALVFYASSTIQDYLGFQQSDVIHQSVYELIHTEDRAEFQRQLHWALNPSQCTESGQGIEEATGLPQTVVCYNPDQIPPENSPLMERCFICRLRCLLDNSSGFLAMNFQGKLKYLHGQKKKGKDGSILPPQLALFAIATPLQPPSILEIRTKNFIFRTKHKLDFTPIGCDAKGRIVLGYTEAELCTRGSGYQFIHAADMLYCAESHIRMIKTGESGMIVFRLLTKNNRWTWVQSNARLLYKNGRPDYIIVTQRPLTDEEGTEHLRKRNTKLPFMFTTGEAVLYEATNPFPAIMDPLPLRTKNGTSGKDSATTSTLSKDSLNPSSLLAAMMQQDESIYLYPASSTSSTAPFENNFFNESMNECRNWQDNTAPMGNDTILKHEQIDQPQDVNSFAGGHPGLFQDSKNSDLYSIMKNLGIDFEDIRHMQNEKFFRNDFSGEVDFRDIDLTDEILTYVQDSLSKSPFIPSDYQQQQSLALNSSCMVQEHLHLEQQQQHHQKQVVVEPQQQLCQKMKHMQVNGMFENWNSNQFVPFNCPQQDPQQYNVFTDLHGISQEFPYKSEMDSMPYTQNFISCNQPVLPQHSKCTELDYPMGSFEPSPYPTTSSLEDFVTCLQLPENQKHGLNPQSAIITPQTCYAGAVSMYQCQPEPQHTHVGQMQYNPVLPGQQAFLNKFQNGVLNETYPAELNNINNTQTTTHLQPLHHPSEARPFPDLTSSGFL
As to the kind of experiment: In vitro assay 1: antagonism in human cell line (AHR transactivation, firefly luciferase reporter, kynurenic acid prestimulated). Format: cell-based. The settings on record: AHR Antagonism Human IC50 [M]. The method, boiled down:
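U87 MG glioblastoma cells with endogenous AHR, stably carrying a DRE-driven firefly luciferase reporter and constitutive Renilla reporter, prestimulated with kynurenic acid before compound addition. Firefly and Renilla read by dual luciferase; Renilla flags toxicity; normalized to controls (150 μM kynurenic acid + 5 μM staurosporine as full inhibition); repeat values averaged or median.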
(In a reporter assay the amount or activity of a reporter protein is the signal.)

Experiment [2] addresses T2, AHR (Mus musculus, UniProt P30561).
T2 sequence (P30561 1-848 P471L/N533S/M589L): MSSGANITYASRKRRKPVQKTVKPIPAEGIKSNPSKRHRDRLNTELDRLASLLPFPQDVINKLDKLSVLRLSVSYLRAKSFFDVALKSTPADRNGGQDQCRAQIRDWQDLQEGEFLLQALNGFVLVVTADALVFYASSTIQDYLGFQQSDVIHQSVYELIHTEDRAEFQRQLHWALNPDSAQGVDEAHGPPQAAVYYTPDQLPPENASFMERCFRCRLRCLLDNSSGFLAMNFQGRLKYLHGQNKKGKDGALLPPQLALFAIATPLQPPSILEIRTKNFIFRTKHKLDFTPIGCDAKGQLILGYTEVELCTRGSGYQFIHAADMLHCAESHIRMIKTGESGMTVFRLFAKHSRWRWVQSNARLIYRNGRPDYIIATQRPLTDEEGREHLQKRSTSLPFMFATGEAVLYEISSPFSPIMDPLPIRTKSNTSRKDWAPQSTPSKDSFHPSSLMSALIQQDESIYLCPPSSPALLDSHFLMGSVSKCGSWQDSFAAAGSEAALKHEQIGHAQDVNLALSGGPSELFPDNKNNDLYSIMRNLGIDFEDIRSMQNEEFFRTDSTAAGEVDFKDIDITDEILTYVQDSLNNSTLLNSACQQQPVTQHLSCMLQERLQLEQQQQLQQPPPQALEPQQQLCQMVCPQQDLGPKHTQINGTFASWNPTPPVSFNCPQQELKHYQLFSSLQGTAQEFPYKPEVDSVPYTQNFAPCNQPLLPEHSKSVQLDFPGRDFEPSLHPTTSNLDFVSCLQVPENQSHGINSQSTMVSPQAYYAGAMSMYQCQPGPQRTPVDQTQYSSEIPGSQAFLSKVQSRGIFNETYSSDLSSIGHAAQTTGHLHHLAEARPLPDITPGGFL
Put plainly: In vitro assay 3: antagonism in mouse cell line (AHR transactivation, firefly luciferase reporter, kynurenic acid prestimulated). Format: cell-based. The following applies: 200 μM kynurenic acid, 20 hours, read-out: AHR Antagonism Mouse IC50. The method, boiled down:
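Mouse cells stably carrying a DRE-driven AHR-inducible firefly luciferase reporter were prestimulated with the endogenous agonist kynurenic acid before compound addition. Luciferase read by SteadyGlo; cells without kynurenic acid served as full-inhibition control, with normalization to positive and negative controls. Repeat tests reported as mean or median.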

Setting [3] is: Hepa 1c1c7 cells, firefly luciferase reporter.

By IC50 is commonly meant the concentration that gives 50% inhibition.

The structures appear in SMILES notation. Read-outs that look alike come from different tables or passages of the source.

On to `Cc1nn(C)cc1-c1nc2c3ccccc3nc(N[C@@H]3CCCCNC3=O)n2n1` [Example 605, (3R)-3-{[2-(1,3-dimethyl-1H-pyrazol-4-yl)[1,2,4]triazolo[1,5-c]quinazolin-5-yl]amino}azepan-2-one], for which the IC50 on AHR [1] worked out at 1.59e-09 M; on AHR [2] (mouse Hepa 1c1c7 cells) it was 1.05 nM.
With `CCc1noc(-c2nc3c4ccccc4nc(N[C@@H]4CCCCNC4=O)n3n2)n1` [Example 132, (3R)-3-{[2-(3-ethyl-1,2,4-oxadiazol-5-yl)[1,2,4]triazolo[1,5-c]quinazolin-5-yl]amino}azepan-2-one], the IC50 worked out at 2.15e-08 M against AHR [1] and 26.3 nM on AHR [2] (mouse Hepa 1c1c7 cells).
`CCCCNC(=O)CNc1nc2ccccc2c2nc(-c3ccncc3F)nn12` [Example 485, N-butyl-N^2-[2-(3-fluoropyridin-4-yl)[1,2,4]triazolo[1,5-c]quinazolin-5-yl]glycinamide]: the IC50 came out at 7.54e-07 M on AHR [1] and 10100 nM on AHR [2] (mouse Hepa 1c1c7 cells).
With `C[C@@H](Nc1nc2c(Br)cccc2c2nc(-c3cnn(C)c3)nn12)C(=O)N1C[C@@H]2C[C@H]1CN2C` [Example 900], the IC50 on AHR [1] (firefly luciferase reporter) amounted to 4.4e-08 M; on AHR [2] (setting [3]), 72.3 nM.
In the case of `CCSc1cccc2c1nc(N[C@@H]1CCCCNC1=O)n1nc(-c3ccc(OC)cc3)nc21` [Example 770, (3R)-3-{[7-(ethylsulfanyl)-2-(4-methoxyphenyl)[1,2,4]triazolo[1,5-c]quinazolin-5-yl]amino}azepan-2-one], the results for the IC50 at AHR [1] and on AHR [2] (mouse Hepa 1c1c7 cells) were 4.04e-09 M and 5.09 nM, respectively.
For the compound `COc1ccc(-c2nc3c4cccc(Br)c4nc(N[C@H](C)C(=O)NCCN4CCCCC4)n3n2)cc1` [Example 895, N^2-[7-bromo-2-(4-methoxyphenyl)[1,2,4]triazolo[1,5-c]quinazolin-5-yl]-N-[2-(piperidin-1-yl)ethyl]-D-alaninamide], the IC50 on AHR [1] (firefly luciferase reporter) was found to be 1.18e-08 M; at AHR [2] (setting [3]), 17.3 nM.
Regarding `Cn1ccc(-c2nc3c4cccc(C(F)(F)F)c4nc(N[C@@H]4CCCCNC4=O)n3n2)n1` [Example 735, (3R)-3-{[2-(1-methyl-1H-pyrazol-3-yl)-7-(trifluoromethyl)[1,2,4]triazolo[1,5-c]quinazolin-5-yl]amino}azepan-2-one], the IC50 against AHR [1] came to 7.1e-09 M; at AHR [2] (mouse Hepa 1c1c7 cells), 9.2 nM.
Taken in the same sequence, the figures for `CC[C@@H](Nc1nc2ccccc2c2nc(-c3cc(C(F)(F)F)cc(C(F)(F)F)c3)nn12)C(N)=O` [Example 361, (2R)-2-({2-[3,5-bis(trifluoromethyl)phenyl][1,2,4]triazolo[1,5-c]quinazolin-5-yl}amino)butanamide] were over 2e-05 M and 66.8 nM.
Regarding `Cn1cc(-c2nc3c4ccccc4nc(NC4CCNC4=O)n3n2)cn1` (centres unmarked) [Example 15, 3-{[2-(1-methyl-1H-pyrazol-4-yl)[1,2,4]triazolo[1,5-c]quinazolin-5-yl]amino}pyrrolidin-2-one], the IC50 came out at 1.78e-05 M at AHR [1] and 7820 nM on AHR [2] (mouse Hepa 1c1c7 cells).
Taken in the same sequence, the figures for `CC[C@@H](Nc1nc2ccccc2c2nc(-c3cccc(OC)c3)nn12)C(N)=O` [Example 88, (2R)-2-{[2-(3-methoxyphenyl)[1,2,4]triazolo[1,5-c]quinazolin-5-yl]amino}butanamide] were 2.11e-09 M and 0.437 nM.
Taken in the same sequence, the figures for `O=C1NCCCC[C@H]1Nc1nc2ccccc2c2nc(-c3ccccc3F)nn12` [Example 55, (3R)-3-{[2-(2-fluorophenyl)[1,2,4]triazolo[1,5-c]quinazolin-5-yl]amino}azepan-2-one] were 2.01e-09 M and 15.7 nM.
Taken in the same sequence, the figures for `NC(=O)[C@@H](CO)Nc1nc2ccccc2c2nc(-c3ccccc3OC(F)(F)F)nn12` [Example 468, N^2-{2-[2-(trifluoromethoxy)phenyl][1,2,4]triazolo[1,5-c]quinazolin-5-yl}-D-serinamide] were 6.73e-08 M and 42.7 nM.
As to `CC[C@@H](Nc1nc2ccccc2c2nc(-c3ccc(Br)cc3OC(F)(F)F)nn12)C(N)=O` [Example 697, (2R)-2-({2-[4-bromo-2-(trifluoromethoxy)phenyl][1,2,4]triazolo[1,5-c]quinazolin-5-yl}amino)butanamide], the results for the IC50 on AHR [1] and on AHR [2] (mouse Hepa 1c1c7 cells) were 6.22e-09 M and 1.19 nM, respectively.
